Common to all, as to conditions: binder
For one test, the target named is T1, MYT1 (Homo sapiens, UniProt Q99640).
T1 sequence (Q99640 1-499): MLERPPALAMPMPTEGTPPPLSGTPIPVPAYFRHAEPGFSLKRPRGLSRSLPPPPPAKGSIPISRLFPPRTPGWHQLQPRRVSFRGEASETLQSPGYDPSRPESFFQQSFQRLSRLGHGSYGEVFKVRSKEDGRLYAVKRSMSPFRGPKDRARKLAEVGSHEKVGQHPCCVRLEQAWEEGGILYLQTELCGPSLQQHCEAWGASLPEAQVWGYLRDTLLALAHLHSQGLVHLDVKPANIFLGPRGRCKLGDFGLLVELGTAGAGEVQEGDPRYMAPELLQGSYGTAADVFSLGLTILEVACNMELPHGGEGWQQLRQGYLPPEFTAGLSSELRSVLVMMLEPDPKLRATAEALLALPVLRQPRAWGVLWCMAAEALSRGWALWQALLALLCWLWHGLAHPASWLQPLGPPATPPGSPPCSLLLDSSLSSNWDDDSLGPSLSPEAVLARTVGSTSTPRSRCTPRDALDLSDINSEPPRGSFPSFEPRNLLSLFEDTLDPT

The next test addresses MARK3 (Homo sapiens, UniProt P27448).
The next test deals with T2, AurA (Homo sapiens, UniProt O14965).
T2 sequence (O14965 1-403): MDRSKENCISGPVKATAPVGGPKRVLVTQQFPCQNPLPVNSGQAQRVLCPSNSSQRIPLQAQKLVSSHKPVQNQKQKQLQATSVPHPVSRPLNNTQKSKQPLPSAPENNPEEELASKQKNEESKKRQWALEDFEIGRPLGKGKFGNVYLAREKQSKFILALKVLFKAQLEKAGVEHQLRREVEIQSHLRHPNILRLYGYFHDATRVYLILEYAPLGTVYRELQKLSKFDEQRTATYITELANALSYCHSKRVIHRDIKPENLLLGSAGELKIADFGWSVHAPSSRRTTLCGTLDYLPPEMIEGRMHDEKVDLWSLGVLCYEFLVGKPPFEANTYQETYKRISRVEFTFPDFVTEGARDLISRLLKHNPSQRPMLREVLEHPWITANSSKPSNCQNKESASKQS

The next test has as its target T3, DCAMKL1 (Homo sapiens, UniProt O15075).
T3 sequence (O15075 1-740): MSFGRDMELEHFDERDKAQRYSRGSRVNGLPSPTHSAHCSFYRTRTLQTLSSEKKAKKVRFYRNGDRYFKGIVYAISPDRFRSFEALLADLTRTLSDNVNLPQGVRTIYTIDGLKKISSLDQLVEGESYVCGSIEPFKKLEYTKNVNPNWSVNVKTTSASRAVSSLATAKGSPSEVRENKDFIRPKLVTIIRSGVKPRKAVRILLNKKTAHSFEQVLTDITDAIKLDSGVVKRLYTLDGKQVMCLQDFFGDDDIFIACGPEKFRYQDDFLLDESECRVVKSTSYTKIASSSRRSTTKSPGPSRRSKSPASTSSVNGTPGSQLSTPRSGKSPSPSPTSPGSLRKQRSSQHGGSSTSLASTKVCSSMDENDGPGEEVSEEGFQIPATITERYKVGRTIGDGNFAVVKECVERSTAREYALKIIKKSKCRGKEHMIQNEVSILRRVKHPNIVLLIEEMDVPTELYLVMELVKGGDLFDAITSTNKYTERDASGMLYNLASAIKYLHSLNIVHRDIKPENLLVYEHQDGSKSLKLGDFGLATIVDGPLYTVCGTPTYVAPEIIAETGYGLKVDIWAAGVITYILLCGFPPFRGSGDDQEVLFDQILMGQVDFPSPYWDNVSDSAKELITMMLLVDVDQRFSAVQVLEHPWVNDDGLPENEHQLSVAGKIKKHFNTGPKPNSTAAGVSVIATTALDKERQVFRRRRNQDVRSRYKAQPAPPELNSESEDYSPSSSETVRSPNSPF

The target of another test is DAPK3 (Homo sapiens, UniProt O43293).
Sequence of DAPK3 (O43293 whole entry): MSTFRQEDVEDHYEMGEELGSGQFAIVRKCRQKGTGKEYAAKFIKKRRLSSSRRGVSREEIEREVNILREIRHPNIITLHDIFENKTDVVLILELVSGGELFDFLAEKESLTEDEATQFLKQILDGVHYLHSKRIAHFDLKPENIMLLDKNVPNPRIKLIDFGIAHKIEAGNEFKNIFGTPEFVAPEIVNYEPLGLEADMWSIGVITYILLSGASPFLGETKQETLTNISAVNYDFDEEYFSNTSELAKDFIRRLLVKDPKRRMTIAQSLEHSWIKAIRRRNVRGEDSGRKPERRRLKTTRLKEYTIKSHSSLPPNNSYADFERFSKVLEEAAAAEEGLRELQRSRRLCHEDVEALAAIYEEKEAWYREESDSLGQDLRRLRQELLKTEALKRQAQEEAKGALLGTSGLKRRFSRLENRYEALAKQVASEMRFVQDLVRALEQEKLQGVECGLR
A further test has as its target T4, BMPR2 (Homo sapiens, UniProt Q13873).
T4 sequence (Q13873 1-1038): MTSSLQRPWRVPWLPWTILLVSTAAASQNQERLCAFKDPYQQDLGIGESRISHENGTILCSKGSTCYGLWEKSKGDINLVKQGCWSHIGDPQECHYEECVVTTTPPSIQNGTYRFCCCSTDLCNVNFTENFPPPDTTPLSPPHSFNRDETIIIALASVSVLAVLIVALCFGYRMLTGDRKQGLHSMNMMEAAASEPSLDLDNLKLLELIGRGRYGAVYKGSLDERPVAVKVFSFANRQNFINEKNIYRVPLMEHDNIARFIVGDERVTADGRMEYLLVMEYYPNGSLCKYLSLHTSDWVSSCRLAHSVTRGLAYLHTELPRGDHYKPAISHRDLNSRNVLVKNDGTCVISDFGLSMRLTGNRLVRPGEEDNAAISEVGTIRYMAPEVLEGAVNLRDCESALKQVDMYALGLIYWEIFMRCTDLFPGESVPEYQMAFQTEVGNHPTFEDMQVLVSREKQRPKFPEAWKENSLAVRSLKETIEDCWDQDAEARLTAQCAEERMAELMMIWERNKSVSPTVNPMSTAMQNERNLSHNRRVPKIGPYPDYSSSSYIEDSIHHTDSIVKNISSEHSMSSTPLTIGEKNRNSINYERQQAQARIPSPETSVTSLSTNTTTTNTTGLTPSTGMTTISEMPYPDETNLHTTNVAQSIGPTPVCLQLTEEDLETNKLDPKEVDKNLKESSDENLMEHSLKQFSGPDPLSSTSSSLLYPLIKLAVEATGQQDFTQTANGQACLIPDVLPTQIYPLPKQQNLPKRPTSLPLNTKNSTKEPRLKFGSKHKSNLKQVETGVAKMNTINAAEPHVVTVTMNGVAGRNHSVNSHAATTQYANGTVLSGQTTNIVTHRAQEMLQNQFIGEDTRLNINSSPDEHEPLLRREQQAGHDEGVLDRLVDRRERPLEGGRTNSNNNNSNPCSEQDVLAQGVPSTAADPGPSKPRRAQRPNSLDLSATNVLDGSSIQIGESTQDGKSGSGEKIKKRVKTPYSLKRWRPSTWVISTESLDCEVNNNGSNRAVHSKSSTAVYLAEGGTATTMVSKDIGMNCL

Sequence of MARK3 (P27448 whole entry): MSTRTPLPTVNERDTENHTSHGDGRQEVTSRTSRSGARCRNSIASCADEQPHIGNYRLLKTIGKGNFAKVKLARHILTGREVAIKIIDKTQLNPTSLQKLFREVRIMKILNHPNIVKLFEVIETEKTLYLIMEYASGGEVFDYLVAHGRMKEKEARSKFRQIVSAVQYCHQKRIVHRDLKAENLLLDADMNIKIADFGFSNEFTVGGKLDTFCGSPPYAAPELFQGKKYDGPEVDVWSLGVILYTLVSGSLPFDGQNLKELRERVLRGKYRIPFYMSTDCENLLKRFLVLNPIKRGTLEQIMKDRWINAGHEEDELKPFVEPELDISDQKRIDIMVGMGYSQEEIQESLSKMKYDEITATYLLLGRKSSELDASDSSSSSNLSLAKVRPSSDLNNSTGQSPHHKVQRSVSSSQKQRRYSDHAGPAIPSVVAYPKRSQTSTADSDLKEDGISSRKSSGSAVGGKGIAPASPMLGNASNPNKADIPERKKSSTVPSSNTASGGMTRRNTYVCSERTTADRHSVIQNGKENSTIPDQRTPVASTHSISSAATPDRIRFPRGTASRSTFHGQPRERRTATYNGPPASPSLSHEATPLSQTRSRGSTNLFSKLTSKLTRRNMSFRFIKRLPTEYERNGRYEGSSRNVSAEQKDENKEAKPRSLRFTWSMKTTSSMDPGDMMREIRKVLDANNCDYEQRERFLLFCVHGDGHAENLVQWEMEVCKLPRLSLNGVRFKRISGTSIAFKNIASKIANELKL

As to `Cc1cccc(-c2ccc(-c3cc4cnc(NCCCc5ccc(N)cc5)nc4n(CCCCN)c3=O)c(Cl)c2)n1` [compound 25, 8-(4-Aminobutyl)-2-((3-(4-aminophenyl)propyl)amino)-6-(2-chloro-4-(6-methylpyridin-2-yl)phenyl)pyrido[2,3-d]pyrimidin-7(8H)-one], the “ΔTm 25” value at MYT1 was -2.3 °C; at MARK3 it was 8.6 °C; at AurA, 1.8 °C; at DCAMKL1 it was 0.1 °C; on DAPK3 it was 0.8 °C; on BMPR2, -0.2 °C.
On to `Cc1cccc(-c2ccc(-c3cc4cnc(NC(CO)CO)nc4n(CCCCN)c3=O)c(Cl)c2)n1` [compound 24, 8-(4-Aminobutyl)-6-(2-chloro-4-(6-methylpyridin-2-yl)phenyl)-2-((1,3-dihydroxypropan-2-yl)amino)pyrido[2,3-d]pyrimidin-7(8H)-one], for which the “ΔTm MR24 (24)” value was -2.0 °C at MYT1; 5.8 °C at MARK3; -1.7 °C on AurA; -2.0 °C on DCAMKL1; 0.2 °C at DAPK3; -0.1 °C on BMPR2.
As to `CNc1ncc2cc(-c3ccc(-c4cccc(C)n4)cc3Cl)c(=O)n(C[C@H]3CC[C@H](N)CC3)c2n1` [compound 23, 23], the “ΔTm 23” value is -0.9 °C on MYT1; 10.4 °C at MARK3; 13.1 °C on AurA; 4.6 °C at DCAMKL1; 2.8 °C on DAPK3; -0.7 °C at BMPR2.
As for `Cc1cccc(-c2ccc(-c3cc4cnc(NCCCN5CCOCC5)nc4n(CCCCN)c3=O)c(Cl)c2)n1` [compound 26, MR26], the “ΔTm MR26 (26)” value on MYT1 was -1.1 °C; at MARK3 it was 5.4 °C; at AurA it was -0.9 °C; on DCAMKL1, -2.0 °C; on DAPK3, 0.0 °C; on BMPR2, -0.2 °C.
`CNc1ncc2cc(-c3ccc(-c4cccc(C)n4)cc3Cl)c(=O)n(CCC3CCNCC3)c2n1` [compound 22, 6-(2-Chloro-4-(6-methylpyridin-2-yl)phenyl)-2-(methylamino)-8-(2-(piperidin-4-yl)ethyl)pyrido[2,3-d]pyrimidin-7(8H)-one]: the “ΔTm 22” value at MYT1 is -4.0 °C; on MARK3, 8.8 °C; on AurA it was 11.4 °C; on DCAMKL1, 0.7 °C; at DAPK3, 2.4 °C; on BMPR2, -0.3 °C.
On to `CNc1ncc2cc(-c3ccc(-c4cccc(C)n4)cc3Cl)c(=O)n(CCCCN)c2n1` [compound 20, MRLW5], for which the “ΔTm MRLW5 (20)” value on MYT1 is -1.0 °C; at MARK3 it was 9.3 °C; at AurA it was 11.8 °C; on DCAMKL1, 1.0 °C; at DAPK3, 1.4 °C; at BMPR2, -0.1 °C.

The values are drawn from paper doi:10.1101/2023.11.24.568596v1 (biorxiv, 2023).
